According to patent US20250325677A1, “STAT6 DEGRADERS” (Gilead Sciences, Inc., priority 2024, published 2025):

Molecular target: STAT6 (Homo sapiens (Human), UniProt P42226)
Experiment: STAT6 degrader assay (HiBiT, HeLa LgBiT clone 4.14)
Type: cell-based
Settings: HeLa LgBiT clone 4.14, 4-24 h; for DC50: geometric mean, given for compounds with >80% Emax, read-out: STAT6 degradation DC50; for Emax: read-out: STAT6 degradation Emax (%)
Protocol: This was a HiBit based assay. A HeLa cell line stably transfected with a small protein, LgBit (Large Bit) was obtained from Promega. These cells express endogenous STAT6. A small 11 amino acid gene sequence (HiBiT) was inserted in the STAT6 gene using CRISPR technology. Once STAT6 protein is expressed in the cells, the HiBiT sequence will bind the LgBit in the cells resulting in a functional NanoBiT protein, giving a luminescent tag to STAT6, see FIG. 2.
Single cell clones were prepared and the clone 4.14 was selected for the assay based on that clone showing high luminescence, high STAT6 phosphorylation upon stimulation with IL-4, and inhibition of luminescence when cells were treated with STAT6 siRNA.
HeLa LgBiT clone 4.14 cells were suspended in DMEM with 10% FCS, 1% Pen/Strep, Na-pyrovate and Hygromycin B, at a concentration of 1.25*105 cells pr mL. 5000 cells were added pr well of a 384 well plate and 20 nL of compound was added by Echo® liquid handler. NN6394A (terfenadine, a toxic compound) was added to control wells at 50 μM concentration to establish the assay window. In these wells the cells are dead which equals 100% degradation of STAT6.
After 4-24 h of incubation at 37° C. under 5% CO2/95% air, 5 μL substrate (Nano-GLO®) was added to the wells and the plates were centrifuged and incubated for 0.5 h.
The luminescence in the wells as a measure of non-degraded STAT6 was measured in a plate reader (BMG Pherastar FSX). The measured DC50 (in nM) was determined.
The dose-response curves Examples 3p1, 3e50, 3e17, and 3e51 are shown below (where percent degradation is plotted vs. test compound concentration in M on a log-scale).

Chain of STAT6 (P42226 whole entry): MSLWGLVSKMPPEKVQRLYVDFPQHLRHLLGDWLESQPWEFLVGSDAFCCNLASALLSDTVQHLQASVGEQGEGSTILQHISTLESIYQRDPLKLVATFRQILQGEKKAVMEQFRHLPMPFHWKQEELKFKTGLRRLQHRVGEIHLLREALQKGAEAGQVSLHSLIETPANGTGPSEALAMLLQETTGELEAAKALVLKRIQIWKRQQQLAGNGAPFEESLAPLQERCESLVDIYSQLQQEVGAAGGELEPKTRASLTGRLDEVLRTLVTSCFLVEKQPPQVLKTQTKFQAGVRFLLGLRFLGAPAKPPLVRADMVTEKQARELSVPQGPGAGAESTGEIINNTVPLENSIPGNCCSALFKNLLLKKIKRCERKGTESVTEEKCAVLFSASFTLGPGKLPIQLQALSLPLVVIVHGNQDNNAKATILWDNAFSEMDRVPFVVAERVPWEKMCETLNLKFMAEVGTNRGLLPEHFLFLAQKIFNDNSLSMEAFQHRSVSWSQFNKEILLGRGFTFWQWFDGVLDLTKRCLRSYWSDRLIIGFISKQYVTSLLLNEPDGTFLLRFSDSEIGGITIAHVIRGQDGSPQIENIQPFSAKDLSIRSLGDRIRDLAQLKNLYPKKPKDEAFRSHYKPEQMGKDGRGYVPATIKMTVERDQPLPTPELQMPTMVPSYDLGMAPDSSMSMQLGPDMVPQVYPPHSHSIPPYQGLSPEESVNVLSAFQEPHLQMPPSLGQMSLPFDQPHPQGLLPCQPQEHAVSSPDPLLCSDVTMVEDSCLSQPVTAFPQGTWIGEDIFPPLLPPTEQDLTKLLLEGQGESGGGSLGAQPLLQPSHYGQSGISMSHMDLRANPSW

SMILES | DC50 [nM] | Emax [%]
CNc1ccc(-c2ccnc3c2cc([C@H](C)N2CCC(c4ccc(C(=O)N5CCC(CN6CCN(Cc7cc8c(cc7F)n([C@@H]7CCC(=O)NC7=O)c(=O)n8C)C[C@@H]6C)CC5)cc4)CC2)n3C)cn1 [Example 3h22, (R)-3-(6-fluoro-3-methyl-5-(((S)-3-methyl-4-((1-(4-(1-((S)-1-(1-methyl-4-(6-(methylamino)pyridin-3-yl)-1H-pyrrolo[2,3-b]pyridin-2-yl)ethyl)piperidin-4-yl)benzoyl)piperidin-4-yl)methyl)piperazin-1-yl)methyl)-2-oxo-2,3-dihydro-1H-benzo[d]imidazol-1-yl)piperidine-2,6-dione] | 0.9 | 
CNc1ccc(-c2ccnc3c2cc([C@H](C)N2CCC(c4ccc(C(=O)N5CCC(CN6CCN(Cc7cc8c(cc7F)n([C@H]7CCC(=O)NC7=O)c(=O)n8C)C[C@@H]6C)CC5)cc4)CC2)n3C)cn1 [Example 3h23, (S)-3-(6-fluoro-3-methyl-5-(((S)-3-methyl-4-((1-(4-(1-((S)-1-(1-methyl-4-(6-(methylamino)pyridin-3-yl)-1H-pyrrolo[2,3-b]pyridin-2-yl)ethyl)piperidin-4-yl)benzoyl)piperidin-4-yl)methyl)piperazin-1-yl)methyl)-2-oxo-2,3-dihydro-1H-benzo[d]imidazol-1-yl)piperidine-2,6-dione] | 1.5 | 
C[C@H]1CN(Cc2ccc3c(c2)n(C2CC2)c(=O)n3C2CCC(=O)N(C)C2=O)CCN1CC1CCN(C(=O)c2ccc(C3CCN([C@@H](C)c4cc5c(-c6ccc(N)nc6)ccnc5n4C)CC3)cc2)CC1 (stereo partly drawn) [Example 3h28, 3-(5-(((S)-4-((1-(4-(1-((S)-1-(4-(6-aminopyridin-3-yl)-1-methyl-1H-pyrrolo[2,3-b]pyridin-2-yl)ethyl)piperidin-4-yl)benzoyl)piperidin-4-yl)methyl)-3-methylpiperazin-1-yl)methyl)-3-cyclopropyl-2-oxo-2,3-dihydro-1H-benzo[d]imidazol-1-yl)-1-methylpiperidine-2,6-dione] |  | 20 to 30
Cc1cc(C(=O)N(C)c2ccc(C3CCN(Cc4ccc5c(c4)n(C)c(=O)n5C4CCC(=O)NC4=O)CC3)cc2)cc(F)c1C1=CCN(Cc2cc3c(-c4ccc(N)nc4)ccnc3n2C)CC1 (stereo not drawn) [Example 3h39, 4-(1-((4-(6-aminopyridin-3-yl)-1-methyl-1H-pyrrolo[2,3-b]pyridin-2-yl)methyl)-1,2,3,6-tetrahydropyridin-4-yl)-N-(4-(1-((1-(2,6-dioxopiperidin-3-yl)-3-methyl-2-oxo-2,3-dihydro-1H-benzo[d]imidazol-5-yl)methyl)piperidin-4-yl)phenyl)-3-fluoro-N,5-dimethylbenzamide] | 0.1 | 
CNc1ccc(-c2ccnc3c2cc(CN2CCC(c4c(F)cc(C(=O)N5CCC(CN6CCN(c7cc8c(cc7F)n(C7CCC(=O)NC7=O)c(=O)n8C)CC6)CC5)cc4F)CC2)n3C)cn1 (stereo not drawn) [Example 3h49, 3-(5-(4-((1-(3,5-difluoro-4-(1-((1-methyl-4-(6-(methylamino)pyridin-3-yl)-1H-pyrrolo[2,3-b]pyridin-2-yl)methyl)piperidin-4-yl)benzoyl)piperidin-4-yl)methyl)piperazin-1-yl)-6-fluoro-3-methyl-2-oxo-2,3-dihydro-1H-benzo[d]imidazol-1-yl)piperidine-2,6-dione] |  | < 20
Cn1c(CN2CCC(c3ccc(C(=O)N4CCC(CN5CCN(Cc6cccc7c6n(C)c(=O)n7C6CCC(=O)NC6=O)CC5)CC4)cc3)CC2)cc2c(-c3ccc4[nH]ncc4c3)ccnc21 (stereo not drawn) [Example 3i1, 3-(4-((4-((1-(4-(1-((4-(1H-indazol-5-yl)-1-methyl-1H-pyrrolo[2,3-b]pyridin-2-yl)methyl)-piperidin-4-yl)benzoyl)piperidin-4-yl)methyl)piperazin-1-yl)methyl)-3-methyl-2-oxo-2,3-dihydro-1H-benzo[d]imidazol-1-yl)piperidine-2,6-dione] |  | 50 to 60
Cn1c(CN2CCC(c3ccc(C(=O)N4CCC(N5CCN(Cc6ccc7c(c6)n(C)c(=O)n7C6CCC(=O)NC6=O)CC5)CC4)cc3)CC2)cc2c(-c3ccc4[nH]ncc4c3)ccnc21 (stereo not drawn) [Example 3j1, 3-(5-((4-(1-(4-(1-((4-(1H-indazol-5-yl)-1-methyl-1H-pyrrolo[2,3-b]pyridin-2-yl)methyl)piperidin-4-yl)benzoyl)piperidin-4-yl)piperazin-1-yl)methyl)-3-methyl-2-oxo-2,3-dihydro-1H-benzo[d]imidazol-1-yl)piperidine-2,6-dione] |  | 20 to 30
Cn1c(CN2CCC(c3ccc(C(=O)N4CCC(N5CCN(Cc6cccc7c6n(C)c(=O)n7C6CCC(=O)NC6=O)CC5)CC4)cc3)CC2)cc2c(-c3ccc4[nH]ncc4c3)ccnc21 (stereo not drawn) [Example 3j2, 3-(4-((4-(1-(4-(1-((4-(1H-indazol-5-yl)-1-methyl-1H-pyrrolo[2,3-b]pyridin-2-yl)methyl)piperidin-4-yl)benzoyl)piperidin-4-yl)piperazin-1-yl)methyl)-3-methyl-2-oxo-2,3-dihydro-1H-benzo[d]imidazol-1-yl)piperidine-2,6-dione] |  | < 20
Cn1c(CN2CCC(c3ccc(C(=O)N4CCN(CC5CCN(Cc6cccc7c6n(C)c(=O)n7C6CCC(=O)NC6=O)CC5)CC4)cc3)CC2)cc2c(-c3ccc4[nH]ncc4c3)ccnc21 (stereo not drawn) [Example 3k1, 3-(4-((4-((4-(4-(1-((4-(1H-indazol-5-yl)-1-methyl-1H-pyrrolo[2,3-b]pyridin-2-yl)methyl)-piperidin-4-yl)benzoyl)piperazin-1-yl)methyl)piperidin-1-yl)methyl)-3-methyl-2-oxo-2,3-dihydro-1H-benzo[d]imidazol-1-yl)piperidine-2,6-dione] |  | 20 to 30
Cn1c(CN2CCC(c3ccc(C(=O)N4CCC(Cn5cc(-c6cccc7c6n(C)c(=O)n7C6CCC(=O)NC6=O)cn5)CC4)cc3)CC2)cc2c(-c3ccc4[nH]ncc4c3)ccnc21 (stereo not drawn) [Example 3l1, 3-(4-(1-((1-(4-(1-((4-(1H-indazol-5-yl)-1-methyl-1H-pyrrolo[2,3-b]pyridin-2-yl)methyl)piperidin-4-yl)benzoyl)piperidin-4-yl)methyl)-1H-pyrazol-4-yl)-3-methyl-2-oxo-2,3-dihydro-1H-benzo[d]imidazol-1-yl)piperidine-2,6-dione] |  | 20 to 30
Cn1c(CN2CCC(c3ccc(C(=O)N4CCC(CCn5cc(-c6cccc7c6n(C)c(=O)n7C6CCC(=O)NC6=O)cn5)CC4)cc3)CC2)cc2c(-c3ccc4[nH]ncc4c3)ccnc21 (stereo not drawn) [Example 3l2, 3-(4-(1-(2-(1-(4-(1-((4-(1H-indazol-5-yl)-1-methyl-1H-pyrrolo[2,3-b]pyridin-2-yl)methyl)-piperidin-4-yl)benzoyl)piperidin-4-yl)ethyl)-1H-pyrazol-4-yl)-3-methyl-2-oxo-2,3-dihydro-1H-benzo[d]-imidazol-1-yl)piperidine-2,6-dione] | 3 | 
Cn1c(CN2CCC(c3ccc(C(=O)N4CCC(Cn5cc(-c6ccc7c(c6)n(C)c(=O)n7C6CCC(=O)NC6=O)cn5)CC4)cc3)CC2)cc2c(-c3ccc4[nH]ncc4c3)ccnc21 (stereo not drawn) [Example 3l3, 3-(5-(1-((1-(4-(1-((4-(1H-indazol-5-yl)-1-methyl-1H-pyrrolo[2,3-b]pyridin-2-yl)methyl)piperidin-4-yl)benzoyl)piperidin-4-yl)methyl)-1H-pyrazol-4-yl)-3-methyl-2-oxo-2,3-dihydro-1H-benzo[d]imidazol-1-yl)piperidine-2,6-dione] |  | 30 to 40
Cn1c(CN2CCC(c3ccc(C(=O)N4CCC(CCn5cc(-c6ccc7c(c6)n(C)c(=O)n7C6CCC(=O)NC6=O)cn5)CC4)cc3)CC2)cc2c(-c3ccc4[nH]ncc4c3)ccnc21 (stereo not drawn) [Example 3l4, 3-(5-(1-(2-(1-(4-(1-((4-(1H-indazol-5-yl)-1-methyl-1H-pyrrolo[2,3-b]pyridin-2-yl)methyl)-piperidin-4-yl)benzoyl)piperidin-4-yl)ethyl)-1H-pyrazol-4-yl)-3-methyl-2-oxo-2,3-dihydro-1H-benzo[d]imidazol-1-yl)piperidine-2,6-dione] | 2.6 | 
Cn1c(CN2CCC(c3ccc(C(=O)N4CCC(CN5CCN(c6ccc7c(c6)n(C)c(=O)n7C6CCC(=O)NC6=O)CC5)CC4)cc3)CC2)cc2c(-c3ccc(N)nc3)ccnc21 (stereo not drawn) [Example 3m1, 3-(5-(4-((1-(4-(1-((4-(6-aminopyridin-3-yl)-1-methyl-1H-pyrrolo[2,3-b]pyridin-2-yl)methyl)-piperidin-4-yl)benzoyl)piperidin-4-yl)methyl)piperazin-1-yl)-3-methyl-2-oxo-2,3-dihydro-1H-benzo[d]imidazol-1-yl)piperidine-2,6-dione] |  | 40 to 50
Cn1c(CN2CCC(c3ccc(C(=O)N4CCC(CN5CCN(c6ccc7c(c6)n(C)c(=O)n7C6CCC(=O)NC6=O)CC5)CC4)cc3)CC2)cc2c(-c3ccc4[nH]ncc4c3)ccnc21 (stereo not drawn) [Example 3m2, 3-(5-(4-((1-(4-(1-((4-(1H-indazol-5-yl)-1-methyl-1H-pyrrolo[2,3-b]pyridin-2-yl)methyl)-piperidin-4-yl)benzoyl)piperidin-4-yl)methyl)piperazin-1-yl)-3-methyl-2-oxo-2,3-dihydro-1H-benzo[d]imidazol-1-yl)piperidine-2,6-dione] | 1.8 | 
